Source: ChEMBL document CHEMBL3045529, “A rational design, synthesis, characterization, and antihypertensive activities of some new substituted benzimidazoles” (2013)

test system: Cavia porcellus; experiment: Antihypertensive activity in Cavia porcellus (guinea pig) assessed as decrease in systolic blood pressure at 3 mg/kg, iv relative to control; type: functional, Artery

Row | Structure (SMILES) | Activity [mmHg]
1 | CCCCc1nc2cc(N(C)C)ccc2n1Cc1ccc(-c2ccccc2-c2nnn[nH]2)cc1 | 29
2 | CCCCC/C=N/c1ccc2c(c1)nc(CCCC)n2Cc1ccc(-c2ccccc2-c2nnn[nH]2)cc1 | 25
3 | CCCCc1nc2cc(NCCC)ccc2n1Cc1ccc(-c2ccccc2-c2nnn[nH]2)cc1 | 32
4 | CCCCc1nc2cc(N)ccc2n1Cc1ccc(-c2ccccc2-c2nnn[nH]2)cc1 | 19
5 | CCCCc1nc2cc(NC(=O)c3ccccc3)ccc2n1Cc1ccc(-c2ccccc2-c2nnn[nH]2)cc1 | 28
6 | CCCC/C=N/c1ccc2c(c1)nc(CCCC)n2Cc1ccc(-c2ccccc2-c2nnn[nH]2)cc1 | 27
7 | CCCCc1nc2cc(NCc3ccccc3)ccc2n1Cc1ccc(-c2ccccc2-c2nnn[nH]2)cc1 | 31
8 | CCCCNc1ccc2c(c1)nc(CCCC)n2Cc1ccc(-c2ccccc2-c2nnn[nH]2)cc1 | 31
9 | C/C=N/c1ccc2c(c1)nc(CCCC)n2Cc1ccc(-c2ccccc2-c2nnn[nH]2)cc1 | 27
10 | CCCCc1nc2cc(NCC)ccc2n1Cc1ccc(-c2ccccc2-c2nnn[nH]2)cc1 | 29
11 | CCCCc1nc(Cl)c(CO)n1Cc1ccc(-c2ccccc2-c2nnn[nH]2)cc1 [LOSARTAN] | 34
12 | CCCCc1nc2cc([N+](=O)[O-])ccc2n1Cc1ccc(-c2ccccc2-c2nnn[nH]2)cc1 | 15
13 | CC/C=N/c1ccc2c(c1)nc(CCCC)n2Cc1ccc(-c2ccccc2-c2nnn[nH]2)cc1 | 18
14 | CCC/C=N/c1ccc2c(c1)nc(CCCC)n2Cc1ccc(-c2ccccc2-c2nnn[nH]2)cc1 | 17
15 | CCCCc1nc2cc(NC)ccc2n1Cc1ccc(-c2ccccc2-c2nnn[nH]2)cc1 | 12
16 | CCCCc1nc2cc(N(CC)CC)ccc2n1Cc1ccc(-c2ccccc2-c2nnn[nH]2)cc1 | 33
17 | CCCCc1nc2cc(NC(C)=O)ccc2n1Cc1ccc(-c2ccccc2-c2nnn[nH]2)cc1 | 22
